{
  "source": "patent US20030068615A1",
  "about": "“Polypeptides that bind HIV gp120 and related nucleic acids, antibodies, compositions, and methods of use” (priority 1999, published 2003)",
  "target": "HIV-1LAI envelope gp120 (Human immunodeficiency virus type 1 group M subtype B, UniProt P03377)",
  "format": "binding",
  "conditions": "for Counts per 20′ Average-background: CCR5 18-mer scan, radiolabeled HIV-1LAI gp120; for number of radioactive decays (counts) counted: human CD4 21-mer scan, empty control 2075",
  "key": {"[1]": {"conditions": "CXCR4 18-mer scan, background subtracted, empty control 0"}, "[2]": {"conditions": "CXCR4 18-mer scan, empty control 412"}, "[3]": {"conditions": "Panel E, 9-mers and 12-mers of CD4, empty control 571"}, "[4]": {"conditions": "Panel C, 15-mers and 18-mers of CD4, empty control 556"}, "[5]": {"conditions": "Panel A, 21-mers of CD4, empty control 515 and 617"}, "[6]": {"conditions": "STRL33 18-mer scan, background subtracted, first of two count columns"}, "[7]": {"conditions": "STRL33 18-mer scan, background subtracted, second of two count columns"}, "[8]": {"conditions": "Panel D, 9-mers and 12-mers of CD4, empty control […]"}, "[9]": {"conditions": "Panel B, 15-mers and 18-mers of CD4, empty control 575"}},
  "note": "Where two headings read alike, the source gives them in different places.",
  "data": [
    {"sequence": "QRPRKLLAEKVVYVGVWI", "values": [
      {"measurement": "radioactive counts recorded in twenty minutes", "setting": "[1]", "result": 127, "unit": "counts"},
      {"measurement": "radioactive counts recorded in twenty minutes", "setting": "[2]", "result": 539, "unit": "counts"}
    ]},
    {"sequence": "QVEFSFPLA", "values": [
      {"measurement": "COUNTS of radiolabeled gp120 retained", "setting": "[3]", "result": 1205, "unit": "counts"}
    ]},
    {"sequence": "QVEFSFPLAFTV", "values": [
      {"measurement": "COUNTS of radiolabeled gp120 retained", "setting": "[3]", "result": 1636, "unit": "counts"}
    ]},
    {"sequence": "QVEFSFPLAFTVEKL", "values": [
      {"measurement": "COUNTS of radiolabeled gp120 retained", "setting": "[4]", "result": 2047, "unit": "counts"}
    ]},
    {"sequence": "QVEFSFPLAFTVEKLTGS", "values": [
      {"measurement": "COUNTS of radiolabeled gp120 retained", "setting": "[4]", "result": 736, "unit": "counts"}
    ]},
    {"sequence": "QVEFSFPLAFTVEKLTGSGEL", "values": [
      {"measurement": "COUNTS of radiolabeled gp120 retained", "setting": "[5]", "result": 741, "unit": "counts"}
    ]},
    {"sequence": "QVEFSFPLLA", "values": [
      {"measurement": "Gp120 Bound (counts)", "setting": "active CD4 fragments: 9-, 12-, 15-, 18- and 21-mers, background not subtracted", "result": 1205, "unit": "counts"}
    ]},
    {"sequence": "QWDFGNTMCQLLTGLYFI [CCR5 segment 93-]", "values": [
      {"measurement": "Counts per 20′ Average-background", "setting": "background subtracted", "result": 1019, "unit": "counts per 20′"}
    ]},
    {"sequence": "QWKSSEDNSKTFSASHNV", "values": [
      {"measurement": "radioactive counts recorded in twenty minutes", "setting": "[6]", "result": 464.5, "unit": "counts"},
      {"measurement": "radioactive counts recorded in twenty minutes", "setting": "[7]", "result": 533.5, "unit": "counts"}
    ]},
    {"sequence": "RCRHRRRQAERMSQIKRLLSE [human CD4 421-441]", "values": [
      {"measurement": "number of radioactive decays (counts) counted", "result": 2075, "unit": "counts"}
    ]},
    {"sequence": "RLHLSVADLLFVITLPFW [CXCR4 segment 77-94]", "values": [
      {"measurement": "radioactive counts recorded in twenty minutes", "setting": "[1]", "result": 136, "unit": "counts"},
      {"measurement": "radioactive counts recorded in twenty minutes", "setting": "[2]", "result": 548, "unit": "counts"}
    ]},
    {"sequence": "RMSQIKRLLSEKKTCQCPHRF", "values": [
      {"measurement": "number of radioactive decays (counts) counted", "result": 2020, "unit": "counts"}
    ]},
    {"sequence": "RNEKKRHRAVRLIFTIMI [CCR5 segment 225-]", "values": [
      {"measurement": "Counts per 20′ Average-background", "setting": "background subtracted", "result": 23, "unit": "counts per 20′"}
    ]},
    {"sequence": "RNYLLVFFQKHIAKRFCK", "values": [
      {"measurement": "Counts per 20′ Average-background", "setting": "background subtracted", "result": 65, "unit": "counts per 20′"}
    ]},
    {"sequence": "RRQAERMSQLKRLLSEKKTCQ [human CD4, printed 42E-446]", "values": [
      {"measurement": "number of radioactive decays (counts) counted", "result": 1607, "unit": "counts"}
    ]},
    {"sequence": "SCYCIIISKLSHSKGHQK", "values": [
      {"measurement": "radioactive counts recorded in twenty minutes", "setting": "[1]", "result": 259, "unit": "counts"},
      {"measurement": "radioactive counts recorded in twenty minutes", "setting": "[2]", "result": 671, "unit": "counts"}
    ]},
    {"sequence": "SDNYTEEMGSGDYDSMKE [CXCR4 segment 9-26]", "values": [
      {"measurement": "radioactive counts recorded in twenty minutes", "setting": "[1]", "result": 43, "unit": "counts"},
      {"measurement": "radioactive counts recorded in twenty minutes", "setting": "[2]", "result": 455, "unit": "counts"}
    ]},
    {"sequence": "SDTHLLQGQ", "values": [
      {"measurement": "COUNTS of radiolabeled gp120 retained", "setting": "[8]", "result": 526, "unit": "counts"}
    ]},
    {"sequence": "SDTHLLQGQSLT", "values": [
      {"measurement": "COUNTS of radiolabeled gp120 retained", "setting": "[8]", "result": 540, "unit": "counts"}
    ]},
    {"sequence": "SDTHLLQGQSLTLTL", "values": [
      {"measurement": "COUNTS of radiolabeled gp120 retained", "setting": "[9]", "result": 747, "unit": "counts"}
    ]},
    {"sequence": "SDTHLLQGQSLTLTLESP", "values": [
      {"measurement": "COUNTS of radiolabeled gp120 retained", "setting": "[9]", "result": 1260, "unit": "counts"}
    ]},
    {"sequence": "SDTYICEVE", "values": [
      {"measurement": "COUNTS of radiolabeled gp120 retained", "setting": "[8]", "result": 819, "unit": "counts"}
    ]},
    {"sequence": "SDTYICEVEDQK", "values": [
      {"measurement": "COUNTS of radiolabeled gp120 retained", "setting": "[8]", "result": 846, "unit": "counts"}
    ]},
    {"sequence": "SDTYICEVEDQKEEV", "values": [
      {"measurement": "COUNTS of radiolabeled gp120 retained", "setting": "[9]", "result": 993, "unit": "counts"}
    ]},
    {"sequence": "SDTYICEVEDQKEEVQLL", "values": [
      {"measurement": "COUNTS of radiolabeled gp120 retained", "setting": "[9]", "result": 870, "unit": "counts"}
    ]},
    {"sequence": "SEDNSKTFSASHNVEATS [STRL33 segment 321-338]", "values": [
      {"measurement": "radioactive counts recorded in twenty minutes", "setting": "[6]", "result": 524.5, "unit": "counts"}
    ]},
    {"sequence": "SEPCQKINVKQIAARLLP [CCR5 segment 17-34]", "values": [
      {"measurement": "Counts per 20′ Average-background", "setting": "background subtracted", "result": "−44", "unit": "counts per 20′"}
    ]},
    {"sequence": "SFHYTIMVTEAIAYLRAC [STRL33 segment 265-282]", "values": [
      {"measurement": "radioactive counts recorded in twenty minutes", "setting": "[6]", "result": 761.5, "unit": "counts"},
      {"measurement": "radioactive counts recorded in twenty minutes", "setting": "[7]", "result": 1033.5, "unit": "counts"}
    ]},
    {"sequence": "SFPLAFTVE", "values": [
      {"measurement": "COUNTS of radiolabeled gp120 retained", "setting": "[3]", "result": 619, "unit": "counts"}
    ]},
    {"sequence": "SFPLAFTVEKLT", "values": [
      {"measurement": "COUNTS of radiolabeled gp120 retained", "setting": "[3]", "result": 528, "unit": "counts"}
    ]},
    {"sequence": "SFPLAFTVEKLTGSG", "values": [
      {"measurement": "COUNTS of radiolabeled gp120 retained", "setting": "[4]", "result": 565, "unit": "counts"}
    ]},
    {"sequence": "SFPLAFTVEKLTGSGELW", "values": [
      {"measurement": "COUNTS of radiolabeled gp120 retained", "setting": "[4]", "result": 656, "unit": "counts"}
    ]},
    {"sequence": "SFPLAFTVEKLTGSGELWWQA", "values": [
      {"measurement": "COUNTS of radiolabeled gp120 retained", "setting": "[5]", "result": 2284, "unit": "counts"}
    ]},
    {"sequence": "SFWDSSQEEEQAFLQFSK", "values": [
      {"measurement": "Binding Results For Window Length (counts bound-background), 9", "setting": "STRL33 amino terminus, 9-mer starting at the first residue of the printed sequence, background subtracted", "result": 304, "unit": "counts"},
      {"measurement": "Binding Results For Window Length (counts bound-background), 12", "setting": "STRL33 amino terminus, 12-mer starting at the first residue of the printed sequence, background subtracted", "result": 303, "unit": "counts"},
      {"measurement": "Binding Results For Window Length (counts bound-background), 15", "setting": "STRL33 amino terminus, 15-mer starting at the first residue of the printed sequence, background subtracted", "result": 969, "unit": "counts"},
      {"measurement": "Binding Results For Window Length (counts bound-background), 18", "setting": "STRL33 amino terminus, 18-mer starting at the first residue of the printed sequence, background subtracted", "result": 4537, "unit": "counts"}
    ]},
    {"sequence": "SIFQQEAPERASSVYTRS [CCR5 segment 325-]", "values": [
      {"measurement": "Counts per 20′ Average-background", "setting": "background subtracted", "result": 100, "unit": "counts per 20′"}
    ]},
    {"sequence": "SITEALAFFHCCLNPILY [CXCR4 segment 285-302]", "values": [
      {"measurement": "radioactive counts recorded in twenty minutes", "setting": "[1]", "result": 188, "unit": "counts"},
      {"measurement": "radioactive counts recorded in twenty minutes", "setting": "[2]", "result": 600, "unit": "counts"}
    ]},
    {"sequence": "SIVYKKEGE", "values": [
      {"measurement": "COUNTS of radiolabeled gp120 retained", "setting": "[3]", "result": 566, "unit": "counts"}
    ]},
    {"sequence": "SIVYKKEGEQVE", "values": [
      {"measurement": "COUNTS of radiolabeled gp120 retained", "setting": "[3]", "result": 543, "unit": "counts"}
    ]},
    {"sequence": "SIVYKKEGEQVEFSF", "values": [
      {"measurement": "COUNTS of radiolabeled gp120 retained", "setting": "[4]", "result": 651, "unit": "counts"}
    ]},
    {"sequence": "SIVYKKEGEQVEFSFPLA", "values": [
      {"measurement": "COUNTS of radiolabeled gp120 retained", "setting": "[4]", "result": 771, "unit": "counts"}
    ]},
    {"sequence": "SIVYKKEGEQVEFSFPLAFTV", "values": [
      {"measurement": "COUNTS of radiolabeled gp120 retained", "setting": "[5]", "result": 8165, "unit": "counts"}
    ]},
    {"sequence": "SIYTSDNYTEEMGSGDYD [CXCR4 segment 5-22]", "values": [
      {"measurement": "radioactive counts recorded in twenty minutes", "setting": "[1]", "result": 71, "unit": "counts"},
      {"measurement": "radioactive counts recorded in twenty minutes", "setting": "[2]", "result": 483, "unit": "counts"}
    ]},
    {"sequence": "SKGHQKRKALKTTVILIL [CXCR4 segment 229-246]", "values": [
      {"measurement": "radioactive counts recorded in twenty minutes", "setting": "[1]", "result": 140, "unit": "counts"},
      {"measurement": "radioactive counts recorded in twenty minutes", "setting": "[2]", "result": 552, "unit": "counts"}
    ]},
    {"sequence": "SKTFSASHNVEATSMFQL [STRL33 segment 325-342]", "values": [
      {"measurement": "radioactive counts recorded in twenty minutes", "setting": "[6]", "result": 1524.5, "unit": "counts"},
      {"measurement": "radioactive counts recorded in twenty minutes", "setting": "[7]", "result": 1239.5, "unit": "counts"}
    ]},
    {"sequence": "SLKIIFLVMAVFLLTQMP [STRL33 segment 229-246]", "values": [
      {"measurement": "radioactive counts recorded in twenty minutes", "setting": "[6]", "result": 612.5, "unit": "counts"},
      {"measurement": "radioactive counts recorded in twenty minutes", "setting": "[7]", "result": 853.5, "unit": "counts"}
    ]},
    {"sequence": "SLKILSKGKRGGHSSVST [CXCR4 segment 325-342]", "values": [
      {"measurement": "radioactive counts recorded in twenty minutes", "setting": "[1]", "result": 285, "unit": "counts"},
      {"measurement": "radioactive counts recorded in twenty minutes", "setting": "[2]", "result": 697, "unit": "counts"}
    ]}
  ]
}
